Experimental findings from PMC3879379, “Gold(III)-Dithiocarbamato Peptidomimetics in the Forefront of the Targeted Anticancer Therapy: Preclinical Studies against Human Breast Neoplasia” (PLoS ONE, 2014) are described below.

In experiment [1] the test system is MDA-MB-231 cells. Nature of the experiment: MTT assay with ROS scavenger Trolox (pretreatment or co-treatment). It is filed as cell-based, human. Conditions: for reduction of IC50 by co-treatment with Trolox: MDA-MB-231, 24 h co-treatment with Trolox 100 µM. As to the method:
In order to investigate whether cell death is affected by free radicals produced in situ by our compounds, cells were seeded in quadruplicate and treated with both complexes and Trolox. We first pretreated cells for 1 h with Trolox at 100 µM and after changing medium, treated cells with compounds and incubated for an additional 24 h. Alternatively, we co-treated cells for 24 h with both compounds and Trolox (100 µM), followed by MTT assay.
(Formazan colour is commonly taken as a measure of viable cells.)

Experiment [2] has as its target T1, proteasomal CT-like activity (Homo sapiens, UniProt P28074).
T1 construct: from tissue; host or cells: MDA-MB-231 xenograft tumour tissue from female athymic nude mice
T1 sequence (P28074 60-263): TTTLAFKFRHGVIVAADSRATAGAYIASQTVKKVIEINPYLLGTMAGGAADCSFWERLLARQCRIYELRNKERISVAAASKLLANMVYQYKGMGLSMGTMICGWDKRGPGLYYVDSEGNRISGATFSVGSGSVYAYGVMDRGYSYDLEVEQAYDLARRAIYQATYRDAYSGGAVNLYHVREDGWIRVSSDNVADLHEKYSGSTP
Nature of the experiment: Proteasomal CT-like activity in xenograft tumor tissue. Conditions: xenograft tumors, 1 mg kg^−1 d^−1, after 27 days of treatment. Type of experiment: in vivo, female athymic nude mice. The protocol:
(§1) Seven-week-old female athymic nude mice were purchased from Harlan Laboratories (Indianapolis, USA) and housed in accordance with protocols approved by the Institutional Laboratory Animal Care and Use Committee of Wayne State University. Human breast cancer MDA-MB-231 cells suspended in 0.1 mL of serum-free DMEM/F12 cell growth medium were inoculated subcutaneously (s.c.) into the right flank of each mouse. When tumors reached a volume of around 115 mm^3, the mice were randomly allocated into three groups (seven mice per group) and treated five days a week by s.c. injection of either vehicle [1∶1∶1 v/v PBS, DMSO, Cremophore/ethanol (1∶4)] or medium containing 1.0 mg/kg of AuD6 or AuD8. Tumor length (L) and width (W) were measured every other day using a caliper, and tumor volumes were evaluated according to the standard formula (π ⋅ L ⋅ W^2)/6. Mouse weights were monitored weekly. Four mice per group were sacrificed after 27 days of treatment, or when tumors reached ∼1,800 mm^3, and the remaining three mice per group were sacrificed after 13 days to observe any early effects of treatments. The tumors were collected and weighed. Tumor tissues were used to measure proteasome inhibition and caspase-3 activation by enzymatic activity assays and by Western blot analysis.

Experiment [3] has as its system MDA-MB-231 cells. In words: MTT cell proliferation assay. Conditions: for IC50: read-out: IC50 (MTT, inhibition of cell proliferation). Type of experiment: cell-based, human. The protocol: Human breast cancer MDA-MB-231 cells were obtained from American Type Culture Collection (Manassas, VA) and grown in DMEM/F12 supplemented with 10% fetal bovine serum, 1 mM sodium pyruvate, 10 mM HEPES, 100 U/mL penicillin and 100 µg/mL streptomycin. Cells were grown in a humidified incubator with 5% CO2 at 37°C. Cells were seeded in octuplicate in 96-well plates and grown to 70%–80% confluence, followed by treatment with DMSO (control) or each compound (dissolved in DMSO) in fresh medium at the indicated concentrations. After 24 or 72 hours incubation at 37°C, inhibition of cell proliferation was measured by MTT assay, as previously described. The cytotoxicity of the compounds was quantified as the percentage of cells surviving relative to untreated cells. Four MTT tests for each compound were performed in order to evaluate the corresponding IC50 values.

In experiment [4] the test system is MDA-MB-231 xenografts. In words: Immunohistochemical p27 and TUNEL staining of tumor samples. It is filed as in vivo, female athymic nude mice. Conditions: xenograft tumors, 1 mg kg^−1 d^−1. The protocol:
IHC was performed using a previously reported protocol. Briefly, tumor samples were paraffin-embedded by the Pathology Core at Karmanos Cancer Institute (Detroit, MI, USA). Samples were then cut and stained for p27 or TUNEL by the BioBank at William Beaumont Hospital (Royal Oak, MI, USA). Anti-p27 (VP-P951) was from Vector Laboratories (Burlingame, CA, USA) and was used at a 1∶30 dilution followed by detection by DAKO. Samples were counterstained with DAB/Hematoxylin. TUNEL staining was performed using anti-digoxigenin and peroxidase substrate, followed by counterstaining with methyl green. In both cases, brown colored cells were considered positive.

Experiment [5] concerns MDA-MB-231 cells. Nature of the experiment: Cellular morphology (phase contrast imaging). Conditions: MDA-MB-231, 24 h. It is filed as cell-based, human. From the text: A Zeiss (Thornwood, NY) Axiovert 25 microscope was used for cellular morphology microscopic imaging with phase contrast.
Experiment [6] deals with T2, proteasome of MDA-MB-231 cell extract (Homo sapiens, UniProt P28072+P28074+Q99436).
T2 construct: endogenous in cells; host or cells: MDA-MB-231 whole-cell extract
T2 sequence (P28074 60-263): T1 sequence (P28074 60-263)
T2 sequence (P28072 1-239): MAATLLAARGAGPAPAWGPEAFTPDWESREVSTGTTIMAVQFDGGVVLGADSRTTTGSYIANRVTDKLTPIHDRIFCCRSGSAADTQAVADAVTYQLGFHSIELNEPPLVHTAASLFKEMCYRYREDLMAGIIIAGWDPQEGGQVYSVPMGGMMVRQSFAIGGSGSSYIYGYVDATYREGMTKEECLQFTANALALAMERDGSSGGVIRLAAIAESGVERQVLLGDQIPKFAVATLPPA
T2 sequence (Q99436 44-277): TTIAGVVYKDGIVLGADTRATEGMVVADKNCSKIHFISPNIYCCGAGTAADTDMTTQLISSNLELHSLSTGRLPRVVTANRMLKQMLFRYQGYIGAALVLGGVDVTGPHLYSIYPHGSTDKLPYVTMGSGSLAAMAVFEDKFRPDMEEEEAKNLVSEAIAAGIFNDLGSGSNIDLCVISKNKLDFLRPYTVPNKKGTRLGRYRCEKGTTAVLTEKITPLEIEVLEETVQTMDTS
In words: Proteasome activity assay on MDA-MB-231 whole-cell extract. It is filed as biochemical. Conditions: 2 h incubation. As to the method: Likewise, MDA-MB-231 whole-cell extract (10 µg/well) was incubated in quadruplicate with each complex and each fluorogenic substrate in 100 µL of assay buffer [20 mM Tris-HCl (pH 7.5)]. Fluorescence data were acquired after 1 hour and 2 hours incubation at 37°C. The whole-cell extract was prepared as described elsewhere.

In experiment [7] the target is T3, Purified human 20S proteasome (Homo sapiens, UniProt P28072+P28074+Q99436).
T3 construct: purchased Boston Biochem (Boston, MA)
Nature of the experiment: Proteasome activity assay on purified 20S proteasome (fluorogenic substrates). Type of experiment: biochemical. Conditions: 2 h incubation. The protocol:
Purified human 20S proteasome (0.5 nM) was incubated in triplicate with three different proteasomal fluorogenic substrates (20 µM) and each compound (dissolved in DMSO) at various concentrations ranging from 0.1 to 10 µM (or an equivalent volume of solvent DMSO as a control) in 100 µL of assay buffer [20 mM Tris-HCl (pH 7.5)].

In experiment [8] the test system is MDA-MB-231 cells. Nature of the experiment: Annexin-V FITC/PI apoptosis assay (flow cytometry). Conditions: MDA-MB-231, 20 µM; for cells in early stage apoptosis: 16 or 24 h (time not specified). It is filed as cell-based, human. The protocol: Apoptosis indexes were measured using the Annexin-V fluorescein isothiocyanate (FITC) apoptosis detection kit I from by BD Pharmingen. MDA-MB-231 cells were grown to around 75% confluence, treated with gold-based complexes (20 µM) or solvent as a control for 16 or 24 h, harvested by means of a scraper and centrifugation. Cell pellets were washed twice with ice cold PBS and cells were then resuspended in 1× binding buffer at a concentration of 1•10^6 cells/mL. 100 µL of the suspension was then transferred to a 5 mL flow cytometry tube and 5 µL FITC Annexin V and 5 µL PI for double stained samples (either 5 µL of FITC Annexin V or 5 µL of PI for controls) were added. Mixtures were gently vortexed and incubated for 15 min at RT in the dark followed by addition of 400 µL 1× binding buffer to each tube. Then, analysis by flow cytometry occurred within 1 h at the Microscopy, Imaging and Cytometry Resources (MICR) Core at the Karmanos Cancer Institute, Wayne State University. Data (Figure 3) are presented as density plots of Annexin-V (x-axis) and propidium iodide (PI, y-axis) stainings. Unstained cells, cells stained with either PI or FITC Annexin-V only, and untreated cells stained with both PI and Annexin-V were used to set up compensation and quadrants. The excitation wavelength was 488 nm and the detection wavelengths were 530±15 and 620±21 nm for Annexin V and PI, respectively. Cells staining negative for both markers were considered viable since Annexin V and PI are both cell membrane impermeable while cells staining positive for both markers were considered in late apoptosis. Cells staining positive for Annexin only were considered in early apoptosis whereas cells staining positive for PI only were considered dead by a necrotic pathway. Percentages of viable, apoptotic, and necrotic cells are reported in the corner of each quadrant (Figure 3).
(In general: A flow cytometer gives signals particle by particle.)

Experiment [9] has as its system MDA-MB-231 xenografts. Nature of the experiment: Human breast tumor xenograft growth. It is filed as in vivo, female athymic nude mice. Conditions: 1.0 mg kg^−1 d^−1 s.c. The protocol: as §1, with “analysis. […]” for “analysis.”
Another experiment relates to p27. Nature of the experiment: Western blot of p27 in treated cells. Conditions: MDA-MB-231, 24 h. It is filed as cell-based, human. As to the method: MDA-MB-231 cells were grown to around 75% confluence, treated with gold-based complexes or solvent as a control, harvested, and lysed. Cell lysates (30 µg/lane) were separated by SDS-PAGE and transferred to a nitrocellulose membrane. After blocking of non-specific binding (5% non-fat dry milk in Tris-Buffered Saline with Tween 20-TBST), membranes were incubated overnight at 4°C with primary antibodies, followed by washing with TBST and incubation for 2 h with secondary antibodies. Bands of interest were visualized using HyGLO Chemiluminescent HRP Antibody detection reagent, HyBlot Chemiluminescence films (Denville Scientific Inc.; Metuchen, NJ) and a HOPE Micro-MAX film processor.
On the technique in general: In western blotting, separated proteins are transferred to a membrane and probed.

[10] abbreviates: read-out: IC50 Chymotrypsin-like activity.
[11] abbreviates: read-out: IC50 PGPH-like activity.
The mark [12] stands for this setting: read-out: IC50 Trypsin-like activity.

Read-outs that look alike come from different tables or passages of the source. Bounds are passed on as bounds.

As a reminder, the inhibition is the change of the read-out against control, counted positive when it falls.

Regarding `Cc1c(C)c2c(c(C)c1O)CCC(C)(C(=O)O)O2` (centres unmarked) [Trolox, reference compound], in the experiment on MDA-MB-231 cells [1] (Homo sapiens, MDA-MB-231, Trolox 100 µM, 24 h treatment, read-out: inhibition of tumor cell growth by Trolox alone), the inhibition at 100 µM is roughly 25%.

For `C[N+](CC(=O)NCC(=O)OC(C)(C)C)=C1[S][Au-]([Br])([Br])[S]1` [AuD6, [Au^IIIBr2(dtc-Sar-AA-O(t-Bu))]], the “inhibition of the proteasomal CT-like pocket in tumor tissue” value in [2] was found to be 14%. The IC50 is 13 ± 1 µM in the experiment with MDA-MB-231 cells [3] (MDA-MB-231, 72 h treatment); 3.3 ± 0.4 µM in [6] (setting [10]); 2.3 ± 0.8 µM in [6] (setting [11]); 3 ± 0.9 µM in experiment [6] (setting [12]); 0.42 ± 0.03 µM in experiment [7] (setting [10]); 0.49 ± 0.09 µM in experiment [7] (setting [11]). Moreover, in experiment [7] (setting [12]), the IC50 stood at 0.51 ± 0.07 µM. The “TUNEL positive (staining of tumor)” value in the experiment on MDA-MB-231 xenografts [4] is reported as roughly 75%. The “p27 positive (immunohistochemical staining of tumor)” value in the experiment on MDA-MB-231 xenografts [4] is given as roughly 20%. Also, in the experiment on MDA-MB-231 cells [5], the “concentration at which apoptotic morphological changes were observed” value is 20 µM. Besides, in the experiment on MDA-MB-231 cells [8], the “cells in early stage apoptosis” value is listed as 7–9%. The “apoptotic cells at late stage (upper right quadrant)” value with MDA-MB-231 cells [8] (24 h) worked out at 49%. Further, the “reduction of IC50 by co-treatment with Trolox” value in the experiment with MDA-MB-231 cells [1] is listed as “approximately 3 fold”.

On to `C[N+](CC(=O)NC(C)(C)C(=O)OC(C)(C)C)=C1[S][Au-]([Br])([Br])[S]1` [AuD8, [Au^IIIBr2(dtc-Sar-AA-O(t-Bu))]], for which the “inhibition of the proteasomal CT-like pocket in tumor tissue” value in [2] worked out at 33%. Also, in the experiment on MDA-MB-231 xenografts [9] (27 days, p<0.05), the “inhibition of tumor growth compared to control” value is 53%. Also, in the experiment with MDA-MB-231 xenografts [9] (day 27), the “tumor volume at end of treatment” value was 849±79 mm^3. The “TUNEL positive (staining of tumor)” value in the experiment with MDA-MB-231 xenografts [4] is listed as roughly 30%. In addition, the “p27 positive (immunohistochemical staining of tumor)” value in the experiment with MDA-MB-231 xenografts [4] was roughly 95%. For the same molecule, the “concentration at which apoptotic morphological changes were observed” value with MDA-MB-231 cells [5] came out at 10 µM. For the same molecule, in the experiment with p27, the “concentration inducing p27 accumulation” value is given as “below 1 µM”. Moreover, the IC50 is 2.9 ± 0.6 µM in experiment [6] (setting [10]); 4.5 ± 0.9 µM in [6] (setting [11]); 5.7 ± 0.1 µM in experiment [6] (setting [12]); 0.29 ± 0.07 µM in experiment [7] (setting [10]); 0.54 ± 0.08 µM in [7] (setting [11]); 0.61 ± 0.02 µM in experiment [7] (setting [12]). Also, the “cells in early stage apoptosis” value with MDA-MB-231 cells [8] was 7–9%. The “apoptotic cells at late stage (upper right quadrant)” value is 62.9% with MDA-MB-231 cells [8] (16 h) and 74.1% in the experiment with MDA-MB-231 cells [8] (24 h). Besides, the “reduction of IC50 by co-treatment with Trolox” value in the experiment with MDA-MB-231 cells [1] is “very little effect”.

In the case of `N.N.[Cl][Pt][Cl]` [cisplatin, cis-diammineplatinum(II) dichloride], in the experiment on MDA-MB-231 cells [3] (MDA-MB-231, 100 µM, 24 h treatment), the growth-inhibitory effect entry is recorded as “around 40%”. Moreover, in the experiment on MDA-MB-231 cells [3] (MDA-MB-231, 24 h treatment), the “IC50 (MTT, inhibition of cell proliferation)” value is listed as “not reached” and the IC50 was greater than 100 µM.
